{
  "source": "ChEMBL document CHEMBL5257018",
  "about": "“Novel Strategies for the Treatment of Pseudomonas aeruginosa Infections” (J Med Chem, 2016)",
  "note": "Numbered stars: 1 amine (or outer) side, 2 acyl side, 3 side chain; on linkers, the order of the positions; unused ones are H or OH. Bridge positions count the residues as written; N and C are the ends. Square brackets hold non-standard residues; d marks the D form. Side chains are listed from the residue outwards. Peptide text beside a SMILES is read from it. I, II: the chains in the order shown. dAla(ψthiazole) = C[C@@H](N[*:1])c1nc(C(=O)[*:2])cs1; Trp(4-OMe) = COc1cccc2[nH]cc(C[C@H](N)C(=O)O)c12; X3 = O=C(c1csc([C@@H](CO)N[*:1])n1)[*:2]; dAbu = CC[C@@H](N)C(=O)O; Dha = C=C(N)C(=O)O; Sar = CNCC(=O)O",
  "data": [
    {"tested_on": "Pseudomonas aeruginosa", "assay": "Antimicrobial activity against Pseudomonas aeruginosa assessed as reduction in bacterial growth", "assay_type": "functional, organism-based", "units": {"IC50": "µg/mL", "MIC90": "µg/mL"}, "values": [
      {"smiles": "CC[C@H](C)[C@H](NC(=O)[C@H](CCCNC(=N)N)NC(=O)[C@H](CCCNC(=N)N)NC(=O)[C@H](Cc1ccccc1)NC(=O)[C@H](CC(C)C)NC(=O)[C@H](CCCNC(=N)N)NC(=O)[C@@H](N)CCCNC(=N)N)C(=O)N[C@@H](CC(C)C)C(=O)N[C@@H](CCCNC(=N)N)C(=O)N[C@@H](Cc1ccc(O)cc1)C(=O)N[C@@H](CC(C)C)C(=O)O", "note": "(H-RRLFRRILRYL-OH)", "MIC": "2.5 µM"},
      {"smiles": "CCCCCCCCCCCCCB(O)O", "MIC": "1 µM"},
      {"smiles": "C=C1NC(=O)[C@@H](CC)NC(=O)CNC(=O)[C@H](Cc2c[nH]c3cccc(OC)c23)NC(=O)[C@H](Cc2c[nH]c3ccccc23)NC(=O)c2csc(n2)[C@@H](CO)NC(=O)CN(C)C1=O", "note": "(cyclo([Dha][Sar][X3]W[Trp(4-OMe)]G[dAbu]))", "IC50": 4},
      {"smiles": "Cc1ccc2c(C)c3c(c(O)c2c1O)C(=O)[C@]1(O)C(=O)C(C(N)=O)=C(O)[C@H](N)[C@@H]1C3", "MIC": "32 µg/mL"},
      {"smiles": "CC(C)C[C@H](NC(=O)[C@H](CCCCN)NC(=O)[C@H](CCCCNC(=O)[C@H](CC(C)C)NC(=O)[C@H](CCCCN)NC(=O)[C@H](CCCCNC(=O)[C@H](CC(C)C)NC(=O)[C@H](CCCCN)NC(=O)[C@H](CCCCNC(=O)[C@H](CC(C)C)NC(=O)[C@@H](N)CCCCN)NC(=O)[C@H](CC(C)C)NC(=O)[C@@H](N)CCCCN)NC(=O)[C@H](CC(C)C)NC(=O)[C@H](CCCCN)NC(=O)[C@H](CCCCNC(=O)[C@H](CC(C)C)NC(=O)[C@@H](N)CCCCN)NC(=O)[C@H](CC(C)C)NC(=O)[C@@H](N)CCCCN)NC(=O)[C@H](CC(C)C)NC(=O)[C@H](CCCCN)NC(=O)[C@H](CCCCNC(=O)[C@H](CC(C)C)NC(=O)[C@H](CCCCN)NC(=O)[C@H](CCCCNC(=O)[C@H](CC(C)C)NC(=O)[C@@H](N)CCCCN)NC(=O)[C@H](CC(C)C)NC(=O)[C@@H](N)CCCCN)NC(=O)[C@H](CC(C)C)NC(=O)[C@H](CCCCN)NC(=O)[C@H](CCCCNC(=O)[C@H](CC(C)C)NC(=O)[C@@H](N)CCCCN)NC(=O)[C@H](CC(C)C)NC(=O)[C@@H](N)CCCCN)C(N)=O", "note": "(I: H-KLK([Leu-Lys])KLKKLKKL-NH2 / II: H-KLK([Leu-Lys])KLKKL / III: H-KLK([Leu-Lys])KL / IV: H-KLK([Leu-Lys])KL; amide I:6-IV:C, I:9-II:C, II:6-III:C)", "MIC": "0.4 µM"},
      {"smiles": "C=C1NC(=O)[C@@H](CC)NC(=O)CNC(=O)[C@H](Cc2c[nH]c3cccc(OC)c23)NC(=O)[C@H](Cc2c[nH]c3ccccc23)NC(=O)c2csc(n2)[C@@H](C)NC(=O)CN(C)C1=O", "note": "(cyclo([Dha][Sar][dAla(ψthiazole)]W[Trp(4-OMe)]G[dAbu]))", "IC50": 0.08},
      {"smiles": "C=C1NC(=O)[C@@H](C)NC(=O)CNC(=O)[C@H](Cc2c[nH]c3cccc(OC)c23)NC(=O)[C@H](Cc2c[nH]c3ccccc23)NC(=O)c2csc(n2)[C@@H](CO)NC(=O)CN(C)C1=O", "note": "(cyclo([Dha][Sar][X3]W[Trp(4-OMe)]G[dA]))", "IC50": 5},
      {"smiles": "CC(C)[C@H](NC(=O)[C@H](Cc1c[nH]c2ccccc12)NC(=O)[C@H](CCCNC(=N)N)NC(=O)[C@H](CCCNC(=N)N)NC(=O)[C@@H](NC(=O)[C@@H](NC(=O)[C@H](CCCNC(=N)N)NC(=O)[C@@H](NC(=O)[C@@H](NC(=O)[C@H](CCCNC(=N)N)NC(=O)[C@H](CCCNC(=N)N)NC(=O)[C@@H](NC(=O)[C@H](Cc1c[nH]c2ccccc12)NC(=O)[C@H](CCCNC(=N)N)NC(=O)[C@H](CCCNC(=N)N)NC(=O)[C@@H](NC(=O)[C@H](CCCNC(=N)N)NC(=O)[C@H](CCCNC(=N)N)NC(=O)[C@@H](NC(=O)[C@H](Cc1c[nH]c2ccccc12)NC(=O)[C@H](CCCNC(=N)N)NC(=O)[C@@H](N)CCCNC(=N)N)C(C)C)C(C)C)C(C)C)C(C)C)C(C)C)C(C)C)C(C)C)C(=O)N[C@@H](CCCNC(=N)N)C(=O)N[C@@H](CCCNC(=N)N)C(=O)O", "note": "(H-RRWVRRVRRWVRRVVRVVRRWVRR-OH)", "MIC": "0.4 µM"},
      {"smiles": "CN(C)c1cc(NC(=O)CNC(C)(C)C)c(O)c2c1C[C@H]1C[C@H]3[C@H](N(C)C)C(O)=C(C(N)=O)C(=O)[C@@]3(O)C(O)=C1C2=O", "note": "[TIGECYCLINE]", "MIC90": 16},
      {"smiles": "COc1c(NC(=O)c2ccc(NC(=O)c3ccc(NC(=O)[C@H](CC#N)NC(=O)c4ccc(NC(=O)/C(C)=C/c5ccc(O)cc5)cc4)cc3)c(OC)c2O)ccc(C(=O)O)c1O", "MIC": "1 µg/mL"}
    ]},
    {"biological_target": "Elastase (Pseudomonas aeruginosa (strain ATCC 15692 / PAO1 / 1C / PRS 101 / LMG12228), UniProt P14756)", "sequence (P14756 whole entry)": "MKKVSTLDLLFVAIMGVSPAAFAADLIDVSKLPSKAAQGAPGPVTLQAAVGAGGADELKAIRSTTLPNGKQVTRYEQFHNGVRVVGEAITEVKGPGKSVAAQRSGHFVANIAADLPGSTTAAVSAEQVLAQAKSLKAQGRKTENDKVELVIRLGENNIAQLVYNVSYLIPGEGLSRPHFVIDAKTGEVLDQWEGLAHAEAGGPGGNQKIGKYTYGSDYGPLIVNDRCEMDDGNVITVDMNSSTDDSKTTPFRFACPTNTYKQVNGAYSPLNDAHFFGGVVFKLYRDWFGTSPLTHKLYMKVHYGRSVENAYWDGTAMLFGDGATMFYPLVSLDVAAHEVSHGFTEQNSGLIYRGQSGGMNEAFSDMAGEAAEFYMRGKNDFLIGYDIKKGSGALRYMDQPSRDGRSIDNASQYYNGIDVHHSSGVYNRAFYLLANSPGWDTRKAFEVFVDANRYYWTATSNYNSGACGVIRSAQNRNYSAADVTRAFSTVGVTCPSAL", "assay": "Inhibition of Pseudomonas aeruginosa LasB elastase using aminobenzoyl-Ala-Gly-Leu-Ala-p-nitro-benzyl-amide as substrate b microtiter-based fluorimetric assay", "units": {"Ki": "nM", "IC50": "nM"}, "values": [
      {"smiles": "CC(C)C[C@H](NP(=O)(O)O[C@@H]1O[C@@H](C)[C@H](O)[C@@H](O)[C@H]1O)C(=O)N[C@@H](Cc1c[nH]c2ccccc12)C(=O)O", "note": "[PHOSPHORAMIDON]", "Ki": 57},
      {"smiles": "CC(=O)SCC(=O)Nc1cc(C)c(Br)cc1Cl", "IC50": 6000},
      {"smiles": "O=C(Nc1ccc(O)c(=O)cc1)Nc1cccc2ccccc12", "IC50": 1000},
      {"smiles": "Cc1c(O)c(=S)ccn1Cc1ccc(-c2ccccc2)cc1", "IC50": 3000}
    ]},
    {"tested_on": "not listed separately", "assay": "Antagonist activity at Pseudomonas aeruginosa MvfR", "units": {"IC50": "nM"}, "values": [
      {"smiles": "CCCCCCCCCc1nc2cc(Cl)ccc2c(=O)n1N", "IC50": 50},
      {"smiles": "O=C(CSc1nc2cc([N+](=O)[O-])ccc2[nH]1)Nc1ccc(Oc2ccccc2)cc1", "IC50": 300},
      {"smiles": "CC(C)(C)c1ccc(C(=O)NO)cc1", "IC50": 87},
      {"smiles": "Nc1nnc(-c2cccc(C(F)(F)F)c2)o1", "IC50": 250}
    ]}
  ]
}
